Test results reported in PMC6066518, “Homology Modeling Informs Ligand Discovery for the Glutamine Transporter ASCT2” (Frontiers in Chemistry, 2018).

Target: T1, ASCT2 (Rattus norvegicus, UniProt D3ZJ25)
T1 construct: gene Slc1a5
T1 sequence (D3ZJ25 1-555): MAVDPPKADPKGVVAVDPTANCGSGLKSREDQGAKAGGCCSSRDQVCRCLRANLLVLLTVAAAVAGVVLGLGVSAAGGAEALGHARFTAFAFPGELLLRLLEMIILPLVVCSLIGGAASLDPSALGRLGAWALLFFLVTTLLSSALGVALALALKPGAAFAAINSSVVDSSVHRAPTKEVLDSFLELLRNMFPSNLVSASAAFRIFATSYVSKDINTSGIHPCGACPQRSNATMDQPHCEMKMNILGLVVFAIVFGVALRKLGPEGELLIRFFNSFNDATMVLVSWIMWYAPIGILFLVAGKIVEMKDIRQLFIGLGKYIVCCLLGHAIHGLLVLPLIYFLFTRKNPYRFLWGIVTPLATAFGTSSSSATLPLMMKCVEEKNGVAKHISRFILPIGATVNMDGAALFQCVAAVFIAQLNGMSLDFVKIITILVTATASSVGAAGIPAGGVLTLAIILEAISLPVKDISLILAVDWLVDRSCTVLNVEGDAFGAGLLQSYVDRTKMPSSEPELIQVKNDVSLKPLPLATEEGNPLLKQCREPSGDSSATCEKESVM
Assay: whole-cell current recording, inhibition of anion leak current in HEK293 cells expressing rat ASCT2
Format: cell-based

IC50: 67 ± 17 µM
SMILES: Cc1ccccc1C1(CNC(=O)NC(C(N)=O)c2ccccc2)CC1 (stereo not shown) [compound 10]
